US4353910A, “Derivatives of 4,5,6,7-tetrahydroisoxazolo [5,4-c] pyridine-3-one, pharmaceutical compositions and methods of treatment” (priority 1981, dated 1982)

What was measured:
[1] = biological target: ^3 H-GABA binding to rat brain membranes; test: ^3 H-GABA binding to rat brain membranes; settings: 10 nM ^3 H-GABA, on ice 5 min
Description: 0.32 M sucrose (made fresh every day)
0.05 N Tris-citrate buffer (pH ~6.8)
^3 H-GABA=aminobutyric acid, γ-2,3-^3 H(N) approx.
35 Ci/mmol, from New England Nuclear
(diluted daily to 1 μM in water)
A. Preparation of membranes
Rats are killed by a blow to their head, exsanguinated and their brains removed and cooled in icecold saline. After rinsing and weighing two brains are pooled and homogenized in 40 ml of icecold 0.32 M sucrose using a motor-driven homogenizer with teflon pestle (6 strokes up and down, slow speed rotation).
The samples are centrifuged for 10 min. at 900 g, and thereafter the supernatants are centrifuged for 20 min. at 17,000 g (4° C.). […]
Incubation tubes in duplicate receive on ice 780 μl of water, 200 μl of drug dissolved in water, 20 μl of 1 μM ^3 H-GABA (final concentration of ^3 H-GABA in tubes=10 nM) and 1000 μl of the membrane suspension. […] Ten ml of Instagel or Lumagel containing 10 ml of acetic acid per 1 are added, and the radioactivity are determined by liquid scintillation counting. The unspecific binding of ^3 H-GABA is determined by incubating the samples with 1 mM of GABA. […]
The means of controls and 1 mM GABA samples are calculated. […] The IC50-values are determined as the concentrations, at which the binding is 50 percent of the total binding minus the unspecific binding.

[2] = tested on: isoniazide-induced seizures in mice; test: Isoniazide antagonism (isoniazide 300 mg/kg s.c. induced convulsions); format: in vivo, mouse; parameters: unit: mg/kg; settings: i.p. test compound, table does not say whether MED or ED50
Description: Isoniazide 300 mg/kg s.c.
Five mice are used for each dose level.
Immediately after administration of test substance, isoniazide 300 mg/kg is injected s.c. This dose of isoniazide induces intermittent tonic clonic seizures within 60 minutes.
The calculations are performed as an "on line procedure" on the EDP-terminal. […] ED50 is determined as the dose in mg/kg which increases the time 50%.

mouse pain threshold = test: Mouse grid shock (analgesic effect, pain threshold); format: in vivo; settings: male mice, + not defined
Description: The mouse grid consists of a perspex cage with wire grid bottom and a perspex lid, on which is placed a microphone sensitive to the frequency of a mouse-squeak. A stimulator with motordriven potentiometer applies a sequence of square wave impulses of continuously increasing milliamperage to the grid. Frequency of impulses 20 cycles/sec., duration 5 msec. Milliamperage is recorded on a digital amperemeter connected to the stimulator. Activation of the microphone by a mouse-squeak cuts off the current and the final milliamperage appear on the meter.
Five mice are used for each dose level. Each mouse serves as its own control.
Prior to the administration of test substance the animals are placed on the grid one at a time and the pain threshold is determined by increasing the current intensity until the mouse squeaks. The pain threshold may be read on the milliamperemeter.
Fifteen minutes and 30 minutes after administration of test substance the mice are tested again and the pain thresholds recorded.
Analgesic effect is present when the pain threshold is increased over the pre-dosing value (control value). The results are stated as % increase in pain threshold calculated on the basis of the control value. The registration can also be done as an on-line procedure. […]

[3] = THIP, prior art; cited from earlier work
[4] = THIP, European Patent Application No. 78 100 191.2; cited from earlier work

Structure (SMILES)	Isoniazide antagonism [2]	other results
CC(=O)n1oc2c(c1=O)CCNC2 [Example 3, 2-Acetyl-4,5,6,7-tetrahydroisoxazolo[5,4-c]-pyridine-3-one]	weak effect	IC50 [1]: > 100 µM; Mouse grid shock (mouse pain threshold): no effect
CNC(=O)n1oc2c(c1=O)CCNC2 [Example 6, 2-(N-methylcarbamoyl)-4,5,6,7-tetrahydroisoxazolo[5,4-c]pyridine-3-one]	1.3	
NC(=O)n1oc2c(c1=O)CCNC2 [Example 5, 2-Carbamoyl-4,5,6,7-tetrahydroisoxazolo[5,4-c]-pyridine-3-one]	5.8	
O=C(NC1CCCCC1)n1oc2c(c1=O)CCNC2 [Example 7, 2-(N-cyclohexylcarbamoyl)-4,5,6,7-tetrahydroisoxazolo[5,4-c]pyridine-3-one]	2.1	
Oc1noc2c1CCNC2 [THIP, 4,5,6,7-tetrahydroisoxazolo[5,4-c]pyridine-3-ol]	1.3	duration of action [3]: relatively shortacting; side effects [3]: some side effects; GABA-related activity [4]: having GABA-related activity
